Several values for one entry are separate records, joined by “and”; a condition that tells them apart may be missing. Equal entries are not always repeated. Where two headings read alike, the source gives them in different places.
Experiments:
[1] = radiometabolite analysis of NHP arterial plasma by HPLC; assay type: in vivo, cynomolgus monkey; settings: 60 min post injection, n = 1
Method: The radiometabolite analysis was performed according to previous reports (Tu et al. 2011, 2015). Arterial blood samples (1.2–1.5 mL) were collected in a heparinized syringe at 2, 5, 15, 30, and 60 min (for [^11C]TZ1964B) or 5, 15 30, 60, 90, and 120 min (for [^18F]MNI659) postinjection of each radiotracer. Plasma (400 μL) was collected by centrifugation of the whole blood and mixed with ice‐cold methanol (0.92 mL) to deproteinate and extract the parent compound and radiolabeled metabolites. After centrifugation, the supernatant was mixed with water (1/1, v/v), and loaded onto a HPLC system with an Agilent SB C‐18 analytical HPLC column (250 mm × 4.6 mm, 5 μ) and a UV detector with 254 nm wavelength. The mobile phase was acetonitrile/0.1 mol/L ammonium formate buffer pH 4.5, (52/48, v/v) with a flow rate of 1.0 mL/min. The eluted fractions were collected for 16 min at 1 min intervals; the radioactivity of in each fraction was counted in a well counter, and results were corrected for background radiation and physical decay.

[2] = Log P measurement, 1-octanol/PBS pH 7.4; assay type: physicochemical; settings: 1-octanol / 0.1 mol/L PBS pH 7.4, Log D7.4 taken as Log P
Method: Log P was measured according to the previous report (Li et al. 2013b), by adding different volumes of [^11C]TZ1964B or [^18F]MNI659 into a mixture of 1‐octanol (3 mL) and 0.1 mol/L phosphate‐buffered saline (PBS, pH 7.4, 3 mL). The mixture was vortexed and then centrifuged. Then, 2 mL organic layer was mixed with 1 mL 1‐octanol and 3 mL PBS buffer. The resulting mixture was vortexed and centrifuged again. Then 1 mL of the organic layer and 1 mL of the aqueous layer were separated and loaded in a gamma counter. The results were corrected for background radiation and physical decay. The partition coefficient Log D7.4, which equals Log P, was calculated as the decimal logarithm the ratio of cpm/mL of 1‐octanol to that of PBS.

[3] = molecular target: PDE10A; settings: cited from earlier work
[4] = system: PDE10A; experiment: microPET imaging of NHP brain, reference-based kinetic analysis and AUC ratio; assay type: in vivo, cynomolgus monkey; settings: for AUC ratio: 60-120 min; for AUC ratio / BPND-Logan / BPND-SRTM / AUC ratio (Stri/Cere) / R1 / k2: mean ± SD; for AUC ratio (Stri/Cere): NHP striatum to cerebellum, 60-120 min data; for time of peak (max SUV) striatal uptake: post injection, averaged SUV curves
Method: PET imaging studies were carried out on two adult male cynomolgus monkeys, weighing on 7–8 kg. Subject A underwent three sets of double scans, and Subject B underwent one set of double scans. Animals were prepared for microPET studies as previously reported (Liu et al. 2015). About 1.5–2.5% isoflurane inhalation anesthesia was maintained throughout the microPET imaging sessions. A 20‐gage plastic catheter was inserted into a limb vein to permit hydration and injection of the radiotracer. Arterial blood was collected through another 20‐gage plastic catheter which was placed into a femoral artery.
The imaging studies of [^11C]TZ1964B and [^18F]MNI659 in the NHP brain through double scans were done using a MicroPET Focus 220 scanner (Concorde/CTI/Siemens Microsystems, Knoxville, TN). For all the double scans, [^11C]TZ1964B studies were performed in the morning and [^18F]MNI659 in the afternoon, with an interval of ~3 h between the injection of each tracer. Prior to each PET acquisition, a 45‐min transmission scan for attenuation correction was performed following a 10 min transmission that was used to check the position of the brain within the scanner. Subsequently, 296–370 MBq of [^11C]TZ1964B or [^18F]MNI659 was intravenously injected, and a 120 min dynamic (3 × 1‐min frames, 4 × 2‐min frames, 3 × 3‐min frames, and 20 × 5‐min frames) PET scan was acquired.
The PET images were processed according to the previous report (Liu et al. 2015). Briefly, emission scans were corrected and reconstructed using filtered back projection as described previously (Miller et al. 1989). The final reconstructed resolution was 2.00 mm full width at half maximum (FWHM) for all three dimensions (axial) at center of the field of view. The actual field of view is 25.8 cm diameter and a 7.6 cm axial length. The reconstructed PET images was co‐registered with magnetization‐prepared rapid gradient echo (MP‐RAGE) MR images using Automated Image Registration (AIR) (Woods et al. 1993), and superimposed using Analyze 10.0 (AnalyzeDirect, Overland Park, KS) for quality control. For quantitative analyses, three‐dimensional regions of interest (ROIs) for cerebellum (Subject A: 583 voxels; Subject B: 750 voxels, the voxel size is 1.858 mm × 1.858 mm × 0.796 mm = 2.75 μL), striatum (A: 695 voxels; B: 1158 voxels), frontal cortex (A: 263 voxels; B: 225 voxels), midbrain (A: 64 voxels; B: 118 voxels), and hippocampus (A: 68 voxels; B: 64 voxels) were identified on MRI images and then transformed into PET images using the co‐registration transformation matrix. The ROIs for each animal were kept fixed for all subsequent studies once identified on a baseline scan. Time–activity curves (TACs) for each ROI were then obtained from the dynamic PET images. Standardized uptake value (SUV) of each tracer was calculated and standardized to the body weight and the injected dose of radioactivity.
Regional tracer uptake was quantified using two different reference‐based kinetic methods: Logan Reference (LoganREF) model (Logan et al. 1990, 1996; Innis et al. 2007; Liu et al. 2015) and simplified reference tissue model (SRTM) (Lammertsma and Hume 1996; Gunn et al. 1997; Innis et al. 2007; Liu et al. 2015). According to the LoganREF model, the distribution volume ratio (DVR) of each ROI was calculated using a MATLAB (Mathworks Inc., Natick, MA). The nondisplaceable binding potential (BPND) was then estimated: BPND = DVR‐1. BPND and R1, k 2 values were also obtained from the SRTM model (Lammertsma and Hume 1996; Watabe et al. 1996).
We also calculated the area under the time–activity curve (AUC) for the striatal to cerebellar ratio (AUC‐striatum/AUC‐cerebellum); this is a simple model and input function‐independent method to quantify an index of tracer accumulation in the brain (Muller Herde et al. 2015). […] Ideally, the AUC ratio equals the DVR determined by LoganREF model (Muller Herde et al. 2015). […]

[5] = system: PDE10A; settings: cited from earlier work; remark: listed apart in the source
[6] = Figure 1, no reference given, read-out: Kd
[7] = NHP frontal cortex to cerebellum
[8] = NHP midbrain to cerebellum, n = 4 scans in 2 NHPs
[9] = NHP striatum, LoganREF model, cerebellum reference, n = 4 scans in 2 NHPs
[10] = NHP striatum, SRTM, cerebellum reference, n = 4 scans in 2 NHPs

| Compound | percentage of parent compound in plasma [1] | logP [2] | Kd [3, 6] | AUC ratio [4, 7] | BPND-Logan ([4]; NHP frontal cortex) | BPND-SRTM ([4]; NHP frontal cortex) | AUC ratio ([4]; NHP hippocampus to cerebellum) | BPND-Logan ([4]; NHP hippocampus) | BPND-SRTM ([4]; NHP hippocampus) | AUC ratio [4, 8] | BPND-Logan ([4]; NHP midbrain) | BPND-SRTM ([4]; NHP midbrain) | AUC ratio (Stri/Cere) ([4]; n = 4 scans in 2 NHPs) | BPND-Logan [4, 9] | BPND-SRTM [4, 10] | R1 ([4]; NHP striatum, SRTM) | k2 ([4]; NHP striatum, SRTM) | time of peak (max SUV) striatal uptake ([4]; NHP striatum) | also measured |
| --- | --- | --- | --- | --- | --- | --- | --- | --- | --- | --- | --- | --- | --- | --- | --- | --- | --- | --- | --- |
| Cc1ccc2c(=O)n(-c3ccc(OCC[18F])cc3)c(CCN3C(=O)c4cccc(OC(C)C)c4C3=O)nc2c1 [[^18F]MNI659, 2‐(2‐(3‐(4‐(2‐[^18F]fluoroethoxy)phenyl)‐7‐methyl‐4‐oxo‐3,4‐dihydroquinazolin‐2‐yl)ethyl)‐4‐isopropoxyisoindoline‐1,3‐dione] | ~ 50% | 1.98 ± 0.06 | 0.097 nM | 1.37 ± 0.12 | 0.29 ± 0.10 | 0.29 ± 0.09 | 1.08 ± 0.23 | 0.11 ± 0.18 | 0.16 ± 0.20 | 2.59 ± 0.42 | 1.02 ± 0.14 | 1.11 ± 0.16 | 7.60 and 7.60 ± 2.68 | 5.08 and 5.08 ± 1.62 | 5.33 and 5.33 ± 1.36 | 1.20 ± 0.20 | 0.28 ± 0.13 min⁻¹ | about 10 min | striatal K2 value relative to [^11C]TZ1964B ([4]; NHP striatum, SRTM): twofold |
| COc1cc2ccccc2nc1COc1ccc(-c2nn(C)cc2-c2ccncc2)cc1 [TZ1964B] | – | 1.98 | – | – | – | – | – | – | – | – | – | – | – | – | – | – | – | – | IC50 ([5]; in vitro binding potency, ref Li et al. 2013a, read-out: IC50 toward PDE10A): 0.4 ± 0.02 nM |
| Cc1ccc2c(=O)n(-c3ccc(OCCF)cc3)c(CCN3C(=O)c4cccc(OC(C)C)c4C3=O)nc2c1 [MNI659] | – | 1.98 | – | – | – | – | – | – | – | – | – | – | – | – | – | – | – | – | Kd ([3]; in vitro, given as Kd in Figure 1, ref Barret et al. 2014, read-out: binding potency for PDE10A): 0.097 nM |
| Cn1cc(-c2ccncc2)c(-c2ccc(OCc3nc4ccccc4cc3O[11CH3])cc2)n1 [[^11C]TZ1964B, 3‐[^11C]methoxy‐2‐((4‐(1‐methyl‐4‐(pyridin‐4‐yl)‐1H‐pyrazol‐3‐yl)phenoxy)methyl)‐quinoline] | ~ 70% | 1.98 ± 0.09 | 1.25 ± 0.2 nM | 1.38 ± 0.13 | 0.15 ± 0.05 | 0.43 ± 0.28 | 1.35 ± 0.41 | 0.11 ± 0.25 | 0.32 ± 0.50 | 1.51 ± 0.47 | 0.26 ± 0.20 | 0.57 ± 0.30 | 5.87 and 5.87 ± 0.45 | 3.72 and 3.72 ± 0.62 | 4.39 and 4.39 ± 0.39 | 1.16 ± 0.17 | 0.13 ± 0.017 min⁻¹ | 40 to 60 min | Ki ([5]; Figure 1, no reference given): 0.4 ± 0.02 nM |

— publication PMC5045939, “Comparison of [^11C]TZ1964B and [^18F]MNI659 for PET imaging brain PDE10A in nonhuman primates” (Pharmacology Research & Perspectives, 2016)
